Source: US20240247024A1, “INHIBITORS OF NICOTINAMIDE N-METHYL TRANSFERASE (NNMT)” (UNIVERSITEIT LEIDEN, priority 2021, published 2024)
Values joined by “and” are separate entries in the source; they are usually repeats but may differ in a detail not shown here. Equal values may be shown once. Read-outs that look alike come from different tables or passages of the source. Blank lines part the entries; values can stand above or below the compound they belong to.

Molecular target: T1, NNMT (Homo sapiens, UniProt P40261)
T1 sequence (P40261 1-264): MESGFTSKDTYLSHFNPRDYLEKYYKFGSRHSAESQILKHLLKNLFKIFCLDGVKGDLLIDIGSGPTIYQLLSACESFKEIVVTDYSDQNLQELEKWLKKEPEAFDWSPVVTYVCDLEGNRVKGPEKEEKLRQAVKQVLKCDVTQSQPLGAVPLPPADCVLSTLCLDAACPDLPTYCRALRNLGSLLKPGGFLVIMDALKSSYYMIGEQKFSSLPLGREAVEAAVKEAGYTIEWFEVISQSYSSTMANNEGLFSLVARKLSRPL
Assay: NNMT assay (HILIC-MS/MS, formation of MNA)
Conditions: NA 200 μM, SAM 8.5 μM

[1] = IC50 values (nM), Table 1, alkene linked aromatics, maximum concentration tested 25 μM
[2] = IC50 values (μM), Table 1, alkene linked aromatics, maximum concentration tested 25 μM
[3] = IC50 values (nM), Table 9, compounds CM035 and CM037
[4] = IC50 values (μM), Table 9, compounds CM035 and CM037
[5] = read-out: IC50 values, Table 1, alkene linked aromatics, maximum concentration tested 25 μM
[6] = IC50 values (nM), Table 6, amino acid replacement, maximum concentration tested 25 μM
[7] = IC50 values (μM), Table 6, amino acid replacement, maximum concentration tested 25 μM
[8] = IC50 values (nM), Table 3, 1-carbon alkyl linkers, maximum concentration tested 25 μM
[9] = IC50 values (μM), Table 3, 1-carbon alkyl linkers, maximum concentration tested 25 μM

Compound: NC(=O)c1cc(/C=C/CN(CC[C@H](N)C(=O)O)C[C@H]2O[C@@H](n3cnc4c(N)ncnc43)[C@H](O)[C@@H]2O)ccc1Br [GYZ-739]
IC50 [5]: 7 nM and 6.8 nM

Compound: N#Cc1ccc(/C=C/CN(CCCNC(=O)CCl)C[C@H]2O[C@@H](n3cnc4c(N)ncnc43)[C@H](O)[C@@H]2O)cc1 [GYZ-608]
IC50 [6]: 11900 nM
IC50 [7]: 11900 nM

Compound: N#Cc1ccc(/C=C/CN(C/C=C/c2ccc(S(=O)(=O)F)cc2)C[C@H]2O[C@@H](n3cnc4c(N)ncnc43)[C@H](O)[C@@H]2O)cc1 [GYZ-743]
IC50 [6]: 7780 nM
IC50 [7]: 7780 nM

Compound: N#CCC(=O)NCCN(C/C=C/c1ccc(C#N)cc1)C[C@H]1O[C@@H](n2cnc3c(N)ncnc32)[C@H](O)[C@@H]1O [GYZ-695]
IC50 [6]: 931 nM
IC50 [7]: 931 nM

Compound: Nc1ncnc2c1ncn2[C@@H]1O[C@H](CN(C/C=C/c2cccc(B(O)O)c2)CC[C@H](N)C(=O)O)[C@@H](O)[C@H]1O [GYZ-746]
IC50 [5]: 1660 nM

Compound: CCNCCN(C/C=C/c1ccc(C#N)cc1)C[C@H]1O[C@@H](n2cnc3c(N)ncnc32)[C@H](O)[C@@H]1O [GYZ-761]
IC50 [6]: > 25000 nM
IC50 [7]: > 25000 nM

Compound: Nc1ncnc2c1ncn2[C@@H]1O[C@H](CN(C/C=C/c2cccc(S(=O)(=O)F)c2)CC[C@H](N)C(=O)O)[C@@H](O)[C@H]1O [GYZ-764]
IC50 [5]: 89 nM and 88.6 nM

Compound: N#Cc1ccc(/C=C/CN(CCC[C@H](N)C(=O)O)C[C@H]2O[C@@H](n3cnc4c(N)ncnc43)[C@H](O)[C@@H]2O)cc1 [GYZ-485]
IC50 [6]: 356 nM

Compound: N#Cc1ccc(/C=C/CN(CCNC(=O)C(F)(F)Br)C[C@H]2O[C@@H](n3cnc4c(N)ncnc43)[C@H](O)[C@@H]2O)cc1 [GYZ-706]
IC50 [6]: > 25000 nM
IC50 [7]: > 25000 nM

Compound: N#Cc1ccc(/C=C/CN(CC[C@H](N)C(=O)O)C[C@H]2O[C@@H](n3cnc4c(N)ncnc43)[C@H](O)[C@@H]2O)cc1C(N)=O [GYZ-755]
IC50 [5]: 29 nM and 28.7 nM

Compound: N#Cc1ccc(/C=C/CN(CCS(=O)(=O)F)C[C@H]2O[C@@H](n3cnc4c(N)ncnc43)[C@H](O)[C@@H]2O)cc1 [GYZ-748]
IC50 [6]: > 25000 nM
IC50 [7]: > 25000 nM

Compound: Nc1ncnc2c1ncn2[C@@H]1O[C@H](CN(CC[C@H](N)C(=O)O)Cc2ccccc2F)[C@@H](O)[C@H]1O [GYZ-421]
IC50 [8]: > 25000 nM
IC50 [9]: > 25000 nM

Compound: Nc1ncnc2c1ncn2[C@@H]1O[C@H](CN(C/C=C/c2ccc(S(=O)(=O)F)cc2)CC[C@H](N)C(=O)O)[C@@H](O)[C@H]1O [GYZ-736]
IC50 [5]: 68 nM and 67.9 nM

Compound: N#Cc1c(F)cc(/C=C/CN(CC[C@H](N)C(=O)O)C[C@H]2O[C@@H](n3cnc4c(N)ncnc43)[C@H](O)[C@@H]2O)cc1F [GYZ-670]
IC50 [5]: 2 nM and 1.99 nM

Compound: Nc1ncnc2c1ncn2[C@@H]1O[C@H](CN(C/C=C/c2ccccc2C(F)(F)F)CC[C@H](N)C(=O)O)[C@@H](O)[C@H]1O [GYZ-326]
IC50 [5]: 2850 nM

Compound: Nc1ncnc2c1ncn2[C@@H]1O[C@H](CN(C/C=C/c2c(F)c(F)c(F)c(F)c2F)CC[C@H](N)C(=O)O)[C@@H](O)[C@H]1O [MH609]
IC50 [1]: 400 nM
IC50 [2]: 400 nM

Compound: Nc1ncnc2c1ncn2[C@@H]1O[C@H](CN(C/C=C/c2cccc(C(F)(F)F)c2)CC[C@H](N)C(=O)O)[C@@H](O)[C@H]1O [GYZ-349]
IC50 [5]: 164 nM

Compound: Nc1ncnc2c1ncn2[C@@H]1O[C@H](CN(C/C=C/c2c(Cl)cccc2Cl)CC[C@H](N)C(=O)O)[C@@H](O)[C@H]1O [GYZ-336]
IC50 [5]: > 25000 nM

Compound: Nc1ncnc2c1ncn2[C@@H]1O[C@H](CN(C/C=C/c2ccc(C(F)(F)F)cc2)CC[C@H](N)C(=O)O)[C@@H](O)[C@H]1O [GYZ-350]
IC50 [5]: 1390 nM

Compound: Nc1ncnc2c1ncn2[C@@H]1O[C@H](CN(CC[C@H](N)C(=O)O)Cc2ccc(F)c([N+](=O)[O-])c2)[C@@H](O)[C@H]1O [GYZ-417]
IC50 (read-out: IC50 values, Table 3, 1-carbon alkyl linkers, maximum concentration tested 25 μM): 410 nM and 407 nM

Compound: Nc1ncnc2c1ncn2[C@@H]1O[C@H](CN(C/C=C/c2ccc(B(O)O)cc2)CC[C@H](N)C(=O)O)[C@@H](O)[C@H]1O [GYZ-732]
IC50 [5]: > 25000 nM

Compound: CC(=O)N(C/C=C/c1ccc(C#N)cc1)C[C@H]1C[C@@H](n2ccc3c(Cl)ncnc32)[C@H](O)[C@@H]1O [CM035]
IC50 [3]: 3580 nM
IC50 [4]: 3580 nM

Compound: Nc1ncnc2c1ncn2[C@@H]1O[C@H](CN(C/C=C/c2ccc(C(=O)O)cc2)CC[C@H](N)C(=O)O)[C@@H](O)[C@H]1O [GYZ-564]
IC50 [5]: > 25000 nM

Compound: Nc1ncnc2c1ncn2[C@@H]1O[C@H](CN(CC[C@H](N)C(=O)O)Cc2ccccc2[N+](=O)[O-])[C@@H](O)[C@H]1O [GYZ-425]
IC50 [8]: > 25000 nM
IC50 [9]: > 25000 nM

Compound: Nc1ncnc2c1ncn2[C@@H]1O[C@H](CN(CC[C@H](N)C(=O)O)Cc2ccc(C(F)(F)F)cc2)[C@@H](O)[C@H]1O [GYZ-414]
IC50 [8]: 6790 nM
IC50 [9]: 6790 nM

Compound: Nc1ncnc2c1ncn2[C@@H]1O[C@H](CN(CC[C@H](N)C(=O)O)Cc2ccc([N+](=O)[O-])cc2)[C@@H](O)[C@H]1O [GYZ-420]
IC50 [8]: 6610 nM
IC50 [9]: 6610 nM

Compound: Nc1ncnc2c1ncn2[C@@H]1O[C@H](CN(CC[C@H](N)C(=O)O)Cc2cccc(F)c2)[C@@H](O)[C@H]1O [GYZ-422]
IC50 [8]: 1240 nM
IC50 [9]: 1240 nM

Compound: Nc1ncnc2c1ncn2[C@@H]1O[C@H](CN(CC[C@H](N)C(=O)O)Cc2ccc(F)cc2)[C@@H](O)[C@H]1O [GYZ-423]
IC50 [8]: > 25000 nM
IC50 [9]: > 25000 nM

Compound: N#Cc1c(F)c(F)c(/C=C/CN(CC[C@H](N)C(=O)O)C[C@H]2O[C@@H](n3cnc4c(N)ncnc43)[C@H](O)[C@@H]2O)c(F)c1F [MH610]
IC50 [1]: 7.14 nM
IC50 [2]: 7 nM

Compound: N#Cc1ccc(/C=C/CN(CC[C@H](N)C(=O)O)C[C@H]2O[C@@H](n3cnc4c(N)ncnc43)[C@H](O)[C@@H]2O)c(F)c1 [GYZ-674]
IC50 [5]: 5 nM and 5.33 nM

Compound: Nc1ncnc2c1ncn2[C@@H]1O[C@H](CN(CC[C@H](N)C(=O)O)Cc2cccc(C(F)(F)F)c2)[C@@H](O)[C@H]1O [GYZ-416]
IC50 [8]: 6580 nM
IC50 [9]: 6580 nM

Compound: Nc1ncnc2c1ncn2[C@@H]1O[C@H](CN(CC[C@H](N)C(=O)O)Cc2ccc(S(=O)(=O)F)cc2)[C@@H](O)[C@H]1O [GYZ-760]
IC50 [8]: 5620 nM
IC50 [9]: 5620 nM

Other lines, results leading:

IC50 [1]: 1810 nM
IC50 [2]: 1810 nM
Compound: Nc1ncnc2c1ncn2[C@@H]1O[C@H](CN(C/C=C/c2c(F)c(F)cc(F)c2F)CC[C@H](N)C(=O)O)[C@@H](O)[C@H]1O [MH612]

IC50 [3]: 264 nM
IC50 [4]: 260 nM
Compound: CC(=O)N(C/C=C/c1ccc(C#N)cc1)C[C@H]1C[C@@H](n2ccc3c(N)ncnc32)[C@H](O)[C@@H]1O [CM037]

IC50 (IC50 values (nM), Table 5, 3-carbon alkyl linkers): 294 nM
IC50 (IC50 values (μM), Table 5, 3-carbon alkyl linkers): 290 nM
Compound: Nc1ncnc2c1ncn2[C@@H]1O[C@H](CN(CCCc2ccc([N+](=O)[O-])cc2)CC[C@H](N)C(=O)O)[C@@H](O)[C@H]1O [GYZ-447]

IC50 [8]: 9700 nM
IC50 [9]: 9700 nM
Compound: Nc1ncnc2c1ncn2[C@@H]1O[C@H](CN(CC[C@H](N)C(=O)O)Cc2ccccc2C(F)(F)F)[C@@H](O)[C@H]1O [GYZ-415]

IC50 [1]: 363 nM
IC50 [2]: 363 nM
Compound: Nc1ncnc2c1ncn2[C@@H]1O[C@H](CN(C/C=C/c2cc(F)c(F)c(F)c2)CC[C@H](N)C(=O)O)[C@@H](O)[C@H]1O [MH611]

IC50 [6]: > 25000 nM
IC50 [7]: > 25000 nM
Compound: N#Cc1ccc(/C=C/CN(CCCCc2ccccc2)C[C@H]2O[C@@H](n3cnc4c(N)ncnc43)[C@H](O)[C@@H]2O)cc1 [GYZ-756]

IC50 (read-out: IC50 values, Table 6, amino acid replacement, maximum concentration tested 25 μM): 538 nM
Compound: C=CC(=O)CCCN(C/C=C/c1ccc(C#N)cc1)C[C@H]1O[C@@H](n2cnc3c(N)ncnc32)[C@H](O)[C@@H]1O [GYZ-704]

IC50 [6]: 7770 nM
IC50 [7]: 7770 nM
Compound: N#Cc1ccc(/C=C/CN(CCNC(=O)C(F)(F)F)C[C@H]2O[C@@H](n3cnc4c(N)ncnc43)[C@H](O)[C@@H]2O)cc1 [GYZ-693]

IC50 [6]: > 25000 nM
IC50 [7]: > 25000 nM
Compound: N#Cc1ccc(/C=C/CN(C/C=C/c2ccc(C#N)cc2)C[C@H]2O[C@@H](n3cnc4c(N)ncnc43)[C@H](O)[C@@H]2O)cc1 [GYZ-466]

IC50 [6]: > 25000 nM
IC50 [7]: > 25000 nM
Compound: N#Cc1ccc(/C=C/CN(CCNC(=O)C(F)(F)Cl)C[C@H]2O[C@@H](n3cnc4c(N)ncnc43)[C@H](O)[C@@H]2O)cc1 [GYZ-701]

IC50 [6]: 4160 nM
IC50 [7]: 4160 nM
Compound: C=CC(=O)N1CC(CN(C/C=C/c2ccc(C#N)cc2)C[C@H]2O[C@@H](n3cnc4c(N)ncnc43)[C@H](O)[C@@H]2O)C1 [GYZ-665]

IC50 [6]: 21000 nM
IC50 [7]: 21000 nM
Compound: C=CC(=O)NCCN(C/C=C/c1ccc(C#N)cc1)C[C@H]1O[C@@H](n2cnc3c(N)ncnc32)[C@H](O)[C@@H]1O [GYZ-604]

IC50 [8]: 320 nM
IC50 [9]: 320 nM
Compound: Nc1ncnc2c1ncn2[C@@H]1O[C@H](CN(CC[C@H](N)C(=O)O)Cc2cccc([N+](=O)[O-])c2)[C@@H](O)[C@H]1O [GYZ-419]

IC50 [6]: > 25000 nM
IC50 [7]: > 25000 nM
Compound: CCCCCN(C/C=C/c1ccc(C#N)cc1)C[C@H]1O[C@@H](n2cnc3c(N)ncnc32)[C@H](O)[C@@H]1O [GYZ-718]

IC50 [6]: 980 nM
IC50 [7]: 980 nM
Compound: N#Cc1ccc(/C=C/CN(CC(=O)CCl)C[C@H]2O[C@@H](n3cnc4c(N)ncnc43)[C@H](O)[C@@H]2O)cc1 [GYZ-702]
